Data from publication PMC9619929, “Conditional Antimicrobial Peptide Therapeutics” (ACS Nano, 2022).

Columns and labels:
Toxicity evaluation = type: in vivo, mouse
Description: ABD-AMP conjugates at different doses were intravenously administered to CD-1 mice. The mice were closely monitored for 24 h before euthanization unless significant morbidity was observed that necessitated early euthanization. Blood samples were drawn via cardiac puncture and dispensed into serum separator tubes (BD Microtainer). The samples were left to clot for at least 30 min and spun at 15 000 rcf for 1.5 min to separate serum. The serum samples were frozen in a −20 °C freezer and submitted for serum chemistry analysis by MIT Diagnostic Laboratory (MIT Division of Comparative Medicine). Serum levels of pro-inflammatory cytokine IL-6 and TNF-α were quantified using ELISA MAX standard sets (BioLegend, CA, U.S.A.) following the manufacturer’s protocol. Organs were harvested, fixed in 10% formalin at RT for 24 h, sectioned into 5 μm slices, and stained with H&E for analysis. The slides were evaluated by a veterinary pathologist blind to the treatment groups and were digitized using a Pannoramic digital slide scanner at 20× magnification.

[1] = mouse, in vivo, iv
Description: All animal studies were approved by the Massachusetts Institute of Technology’s Committee on Animal Care (MIT protocol 0619-034-22). CD-1 mice (11–12 weeks old) were rendered neutropenic by intraperitoneal injections of cyclophosphamide at 4 d (150 mg/kg) and 1 d (100 mg/kg) prior to infection. PAO1 inoculation was performed by intratracheal instillation of PAO1 suspension (2 × 10^5 cfu in 50 μL PBS) via a 22G blunt-end catheter (EXCEL International). For BALF collection, the mice were first euthanized. An incision into the trachea was made with a needle puncture where lavage was performed with PBS (1 mL) via a catheter-fitted syringe. BALFs were centrifuged to remove cells, aliquoted, and stored in a −20 °C freezer.
ABD-AMP-Cy7 conjugates (15 nmol) were intravenously administered at 6 h post infection. The mice were euthanized 2 h after and organs were harvested for imaging with an Odyssey CLx imager. After imaging, organs were homogenized in PBS supplemented with Halt protease inhibitor cocktail (ThermoFisher Scientific, MA, U.S.A.) using a gentleMAC dissociator (Miltenyi Biotec, CA, U.S.A.). The homogenates were pelleted and the supernatants were used for SDS-PAGE analysis.

Pharmacokinetics study = type: in vivo, mouse; details: 15 nmol IV, CD-1 mice, blood, n = 4
Description: ABD-AMP-Cy7 conjugates (15 nmol) were intravenously administered to CD-1 mice. At different time intervals, blood samples (5 μL) were collected via saphenous vein bleeding using heparin-coated capillary tubes. Blood samples were diluted 10-fold in PBS supplemented with Halt protease inhibitor cocktail and EDTA and centrifuged to remove cells. The supernatants were used to quantify conjugate concentration via SDS-PAGE analysis.

CC[C@@H](C)[C@@H](NC(=O)CN)C(=O)NCC(=O)N[C@H](CCCCN)C(=O)N[C@H](Cc1ccccc1)C(=O)N[C@H](CC(C)C)C(=O)N[C@H](CCCCN)C(=O)N[C@H](CCCCN)C(=O)N[C@H](C)C(=O)N[C@H](CCCCN)C(=O)N[C@H](CCCCN)C(=O)N[C@H](Cc1ccccc1)C(=O)NCC(=O)N[C@H](CCCCN)C(=O)N[C@H](C)C(=O)N[C@H](Cc1ccccc1)C(=O)N[C@@H](C(=O)N[C@H](CCCCN)C(=O)N[C@@H](C(=O)N[C@H](CC(C)C)C(=O)N[C@H](CCCCN)C(=O)N[C@H](CCCCN)C(N)=O)[C@H](C)CC)C(C)C [(D)Pex]
Signs of distress over the observation period (Toxicity evaluation; 10 mg/kg (AMP eq) IV, 24 h): signs of distress | Histology evaluation of organs (H&E) (Toxicity evaluation; 10 mg/kg (AMP eq) IV, 24 h, blinded veterinary pathologist, n = 3): Pathological damage was observed in kidneys and spleen | Mice that did not survive to the study end point (Toxicity evaluation; 10 mg/kg IV, 24 h): 3 of 5 | Serum pro-inflammatory cytokine IL-6 (Toxicity evaluation; 10 mg/kg IV, ELISA): significantly elevated | Serum levels of ALT, AST, BUN and creatinine (Toxicity evaluation; IV, 5 and 10 mg/kg AMP eq, 24 h, (D)Pex result at 10 mg/kg, n = 3–5): elevated beyond a normal reference range | Maximum tolerated dose (MTD) (Toxicity evaluation; IV, CD-1 mice, monitored 24 h): 5 mg/kg

Azidoacetyl–GiGkflkkakkfGkafvkilkk–K(Cy7)–CONH2 [(D)Pex-Cy7, free unconjugated Cy7-labelled (D)Pex control]
AUC ((D)Pex-Cy7), kidneys [1]: 14.1 % ID*h/g | AUC ((D)Pex-Cy7), liver [1]: 112 % ID*h/g | AUC ((D)Pex-Cy7), lungs [1]: 5.29 % ID*h/g | AUC ((D)Pex-Cy7), spleen [1]: 23.5 % ID*h/g | AUC (Pharmacokinetics study; SDS-PAGE Cy7 quantification): 2.08 µM·h | t1/2,α (Pharmacokinetics study): 35.3 min | t1/2,β (Pharmacokinetics study): 35.6 min
